The assay has as its target Rho-associated protein kinase 2 (Homo sapiens, UniProt O75116). The experiment in a line: Inhibition of ROCK2 (unknown origin) assessed as phosphorylation of MYPT1 using Tetramethylbenzidine as substrate in presence of ATP.

Sequence of Rho-associated protein kinase 2 (O75116 whole entry): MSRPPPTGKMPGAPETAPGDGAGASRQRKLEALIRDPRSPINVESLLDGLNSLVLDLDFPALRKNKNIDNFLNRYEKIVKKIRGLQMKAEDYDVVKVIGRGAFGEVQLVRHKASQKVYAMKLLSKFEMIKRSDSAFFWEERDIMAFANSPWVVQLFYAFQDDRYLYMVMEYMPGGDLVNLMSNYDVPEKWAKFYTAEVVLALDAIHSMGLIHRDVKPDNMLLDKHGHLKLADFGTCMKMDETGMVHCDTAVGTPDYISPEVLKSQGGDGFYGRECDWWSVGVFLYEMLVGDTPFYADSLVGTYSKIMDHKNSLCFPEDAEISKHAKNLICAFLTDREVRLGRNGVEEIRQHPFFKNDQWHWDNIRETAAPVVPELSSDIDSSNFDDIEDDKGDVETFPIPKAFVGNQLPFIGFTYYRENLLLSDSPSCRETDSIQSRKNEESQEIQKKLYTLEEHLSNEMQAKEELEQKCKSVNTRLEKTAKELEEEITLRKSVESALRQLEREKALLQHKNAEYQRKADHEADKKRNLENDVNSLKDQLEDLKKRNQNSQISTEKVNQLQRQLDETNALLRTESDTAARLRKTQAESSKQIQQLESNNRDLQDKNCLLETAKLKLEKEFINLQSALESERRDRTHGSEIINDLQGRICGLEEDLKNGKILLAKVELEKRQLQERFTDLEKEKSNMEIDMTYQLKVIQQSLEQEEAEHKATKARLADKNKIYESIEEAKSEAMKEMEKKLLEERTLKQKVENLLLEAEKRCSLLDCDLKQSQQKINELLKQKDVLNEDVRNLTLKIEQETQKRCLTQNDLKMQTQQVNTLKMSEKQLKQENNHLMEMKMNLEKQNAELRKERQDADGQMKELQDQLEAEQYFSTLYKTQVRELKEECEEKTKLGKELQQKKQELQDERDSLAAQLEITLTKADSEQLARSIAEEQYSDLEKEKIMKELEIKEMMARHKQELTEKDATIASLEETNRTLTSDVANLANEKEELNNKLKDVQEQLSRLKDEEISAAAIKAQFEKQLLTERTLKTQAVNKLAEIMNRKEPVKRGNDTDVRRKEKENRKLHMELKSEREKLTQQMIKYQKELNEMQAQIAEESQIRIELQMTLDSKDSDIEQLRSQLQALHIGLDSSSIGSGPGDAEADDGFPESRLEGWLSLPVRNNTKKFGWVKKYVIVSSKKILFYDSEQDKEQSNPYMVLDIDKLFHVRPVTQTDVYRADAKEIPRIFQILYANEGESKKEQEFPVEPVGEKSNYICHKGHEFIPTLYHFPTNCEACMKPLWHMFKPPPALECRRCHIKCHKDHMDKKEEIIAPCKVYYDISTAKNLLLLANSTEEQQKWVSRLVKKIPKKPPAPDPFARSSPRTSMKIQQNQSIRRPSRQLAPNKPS

For `COC(=O)c1ccc(N(C)C(C(=O)c2ccccc2)c2ccccc2)cc1` (stereo not drawn), the concentration for half-maximal inhibition (IC50) stood at 9.01 nM.

Consider `CCC(O)CNCc1ccnc2ccc(OC)cc12` (stereo not drawn), for which the half-maximal inhibitory concentration (IC50) was determined as 8.02 nM.

Consider `COCSC(C)CCSCCO` (stereo not drawn), for which the half-inhibitory concentration (IC50) came to 8.4 nM.

Usually IC50 stands for the concentration at which inhibition is half-maximal.

Values taken from ChEMBL document CHEMBL4619824, “Identification of Novel Rho-Kinase-II Inhibitors with Vasodilatory Activity” (ACS Med Chem Lett, 2020).
